# From paper PMC10144242, “Design, Synthesis, In Vitro, and In Silico Insights of 5-(Substituted benzylidene)-2-phenylthiazol-4(5H)-one Derivatives: A Novel Class of Anti-Melanogenic Compounds” (Molecules, 2023)
# How the values were obtained:
# [1] = target: T1, B16F10 cellular tyrosinase (Mus musculus, UniProt P11344); assay: Cellular anti-tyrosinase activity assay in IBMX/α-MSH-stimulated cells; type: cell-based, murine; conditions: 72 h; for cellular tyrosinase inhibitory activity: IBMX + α-MSH; for effect on cellular tyrosinase activity enhanced by stimulators: B16F10, 5, 10, 20 µM, IBMX 200 µM + α-MSH 1 µM
# T1 construct: the anti-tyrosinase effects of these derivatives were investigated using B16F10 cells; host or cells: B16F10 murine melanoma cells
# T1 sequence (P11344 19-533): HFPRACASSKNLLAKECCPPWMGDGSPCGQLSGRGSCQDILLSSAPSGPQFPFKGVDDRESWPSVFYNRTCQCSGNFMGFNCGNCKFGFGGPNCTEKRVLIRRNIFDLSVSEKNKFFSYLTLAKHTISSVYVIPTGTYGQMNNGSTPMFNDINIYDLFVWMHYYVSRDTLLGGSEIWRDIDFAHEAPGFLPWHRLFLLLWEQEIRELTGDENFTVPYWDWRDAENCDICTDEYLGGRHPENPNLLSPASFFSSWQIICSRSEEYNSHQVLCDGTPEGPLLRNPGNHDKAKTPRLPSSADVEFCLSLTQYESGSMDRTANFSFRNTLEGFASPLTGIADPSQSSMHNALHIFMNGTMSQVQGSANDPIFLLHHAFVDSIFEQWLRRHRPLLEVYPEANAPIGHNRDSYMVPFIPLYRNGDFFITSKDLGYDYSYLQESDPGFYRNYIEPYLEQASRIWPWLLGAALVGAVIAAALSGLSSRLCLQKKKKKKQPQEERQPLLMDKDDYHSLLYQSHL
# Method: To examine the origin of the anti-melanogenic effects of (Z)-BPT derivatives 1 and 2, the anti-tyrosinase effects of these derivatives were investigated using B16F10 cells. […] After 72 h of incubation, the effects of 1 and 2 on cellular tyrosinase activity were analyzed.
# Briefly, B16F10 melanoma cells were seeded in a 6-well plate at a density of 1 × 10^5 cells/well and allowed to adhere to the bottom of each well under identical conditions to the cell culture. […] After incubation for 1 h, the tyrosinase activity of the cells was increased by treatment with 200 µM IBMX and 1 µM α-MSH. The cells were incubated for 72 h under identical conditions to cell culture before being rinsed twice with PBS, exposed to a 100 µL lysis buffer solution consisting of 90 µL phosphate buffer (50 mM) at pH 6.5, 5 µL PMSF (2 mM), and 5 µL Triton X-100 (20%), and then incubated for 30 min at −80 °C. The cell lysates were placed into microcentrifuge tubes after defrosting and they were centrifuged at 12,000 rpm at 4 °C for 30 min. The supernatants (80 µL) of the lysates were combined with 20 µL of 10 mM L-DOPA in a 96-well plate. Using a microplate reader used for the melanin content assay, the mixture’s absorbances were measured every 10 min for 1 h at 37 °C and 492 nm. Each experiment was performed independently in triplicates.
# Figure 8 Anti-tyrosinase activities of (Z)-BPT derivatives 1 and 2 in B16F10 cells. […] (A) Derivative 1 and (B) derivative 2. Data are presented as the mean ± standard error of the mean. ^### p < 0.001; * p < 0.05, ** p < 0.01, and *** p < 0.001.
# mushroom tyrosinase = mushroom tyrosinase (Agaricus bisporus, UniProt C7FF04); assay: Kinetic studies on mushroom tyrosinase inhibition (Lineweaver–Burk and Dixon plots, L-DOPA substrate); type: biochemical; design: purchased Sigma-Aldrich; conditions: for Ki: Dixon plots, read-out: Ki (inhibition constant); for Inhibition type: Lineweaver–Burk plot
# Sequence of mushroom tyrosinase (C7FF04 1-392 limits assumed): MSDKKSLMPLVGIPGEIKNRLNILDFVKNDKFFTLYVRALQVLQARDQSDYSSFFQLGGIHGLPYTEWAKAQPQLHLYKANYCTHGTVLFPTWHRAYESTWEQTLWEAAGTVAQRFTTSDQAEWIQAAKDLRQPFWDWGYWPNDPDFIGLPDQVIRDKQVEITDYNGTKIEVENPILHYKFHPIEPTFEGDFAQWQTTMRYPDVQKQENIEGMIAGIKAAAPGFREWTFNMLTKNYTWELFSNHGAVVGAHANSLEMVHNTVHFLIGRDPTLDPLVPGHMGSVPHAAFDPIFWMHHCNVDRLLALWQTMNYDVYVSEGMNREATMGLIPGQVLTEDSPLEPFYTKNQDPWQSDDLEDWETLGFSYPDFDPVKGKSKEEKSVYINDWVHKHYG
# Method: As depicted in Figure 2, the mechanisms of tyrosinase inhibition were analyzed using Lineweaver–Burk plots. […] Each of the four straight lines produced at each inhibitor concentration converged to a single point on the y-axis. […] In contrast, in derivative 3, four straight lines generated at each inhibitor concentration intersected at a point in the second quadrant. According to the Lineweaver–Burk plot, as the inhibitor concentration increased, the Vmax value of 3 decreased, but the KM value increased.
# To determine the Ki (inhibition constant) values of (Z)-BPT derivatives 1–3, Lineweaver–Burk plots for 1–3 were transformed into the corresponding Dixon plots (Figure 3). Each Dixon plot obtained from each Lineweaver–Burk plot produced four straight lines that intersected at one point in the second quadrant. The vertical lines from the merge point to the x-axis provide the Ki value of each (Z)-BPT derivative.
# To determine the mode of action, Lineweaver–Burk plots of (Z)-BPT derivatives 1–3 were acquired. In brief, 10 µL of (Z)-BPT derivatives 1–3 (final concentrations:0, 3, 6, or 12 µM for 1; 0, 0.05, 0.1, or 0.2 µM for 2; 0, 2.5, 5, or 10 µM for 3) was added to a 96-well plate containing a substrate mixture (170 µL) consisting of an aqueous solution of L-dopa at final concentrations of 0.5, 1.0, 2.0, or 4.0 mM and 14.7 mM potassium phosphate buffer (pH 6.5), and a mushroom tyrosinase aqueous solution (20 µL, 20 units). Using a microplate reader (VersaMax^TM, Molecular Devices, Sunnyvale, CA, USA) to measure the increase in absorbance at a wavelength of 492 nm (ΔOD492/min), the initial rate of dopachrome synthesis in the reaction mixture was estimated. Using five different concentrations of L-dopa, Lineweaver–Burk plots (inverse of the response rate (1/V) vs. inverse of L-dopa concentration (1/(S)) were created. The convergence points of the four plot lines were used to define the mode of action of tyrosinase inhibition.
# Figure 2 Lineweaver–Burk plots for the inhibition of mushroom tyrosinase activity by (Z)-BPT derivatives 1–3. […] Three independent experiments with five different concentrations (0.5, 1, 2, 4, and 8 mM) of an L-DOPA substrate were used to measure the augmented dopachrome optical density per minute at 492 nm. The data are shown as mean values of 1/V (an inverse of that optical density per minute). The (Z)-BPT derivatives were used at concentrations of 0 (filled circles), 3 (unfilled circles), 6 (filled triangles), and 12 µM (unfilled triangles) for 1; 0 (filled circles), 0.05 (unfilled circles), 0.1 (filled triangles), and 0.2 µM (unfilled triangles) for 2; and 0 (filled circles), 2.5 (unfilled circles), 5 (filled triangles), and 10 µM (unfilled triangles) for 3. Each experiment was run independently in triplicates.
# Figure 3 Dixon plots for the inhibition of mushroom tyrosinase activity by (Z)-BPT derivatives 1–3. The Ki values of (Z)-BPT derivatives 1–3 were obtained from the absolute values of the x-coordinate where four straight lines converged at one point. Three independent experiments with four different concentrations of (Z)-BPT derivatives were conducted to measure the augmented dopachrome optical density per minute at 492 nm. The data are shown as the mean values of 1/V (an inverse of that optical density per minute). The (Z)-BPT derivatives were used at concentrations of 0, 3, 6, and 12 µM for 1; 0, 0.05, 0.1, and 0.2 µM for 2; and 0, 2.5, 5, and 10 µM for 3. The experiments were performed at four different concentrations (0.5, 1, 2, and 4 mM) of L-DOPA. Each experiment was run independently in triplicates.
SMILES,"cellular tyrosinase inhibitory activity ([1]; B16F10, 20 µM)",effect on cellular tyrosinase activity enhanced by stimulators [1],Ki (mushroom tyrosinase),Inhibition type (mushroom tyrosinase),"cellular tyrosinase inhibitory activity ([1]; B16F10, 5 µM)"
"O=C1N=C(c2ccccc2)S/C1=C\c1ccc(O)cc1 [Compound 1, (Z)-5-(4-Hydroxybenzylidene)-2-phenylthiazol-4(5H)-one]",stronger inhibitory activity than kojic acid,dose-dependently and significantly decreased,8.89 µM,Competitive,
"O=C1N=C(c2ccccc2)S/C1=C\c1ccc(O)cc1O [Compound 2, (Z)-5-(2,4-Dihydroxybenzylidene)-2-phenylthiazol-4(5H)-one]",reduced the cellular tyrosinase activity to the levels observed in the untreated control,dose-dependently and significantly decreased,0.1 µM,Competitive,comparable to that of 20 µM kojic acid
